# Laboratory results from patent publication US20260034277A1, “SYSTEMS AND METHODS FOR PATHOGEN INACTIVATION OF BLOOD PRODUCTS” (Cerus Corporation, priority 2024, published 2026).
# Columns and labels:
# [1] = Stability of S-303 after reconstitution, HPLC percent total peak area; format: physicochemical
# Text: Increasing the throughput of RBC processing over the current process may benefit from the preparation of multi-use “bulk” containers of S-303 and GSH stock solutions for transfer (e.g., sequential transfer) into multiple processing sets to treat multiple RBC units. However, the instability of S-303 after reconstitution in the current INTERCEPT Blood System technology would generally not be suitable for such a multi-dose container approach. Toward an objective of multi-dose “bulk” dosing, which would require much longer hold times post-reconstitution, studies were performed to evaluate the stability of S-303 under different conditions, such as when reconstituted at higher concentrations. As control, S-303 was reconstituted at a concentration of 6.1 mM. Additional study arms reconstituted S-303 at 9.4 mM, 14.4 mM and 28.8 mM (Table 10). S-303 levels were measured over 120 min after reconstitution by standard HPLC and calculated as total peak area (e.g., area under the peak, area under the curve) to determine percent stability (percent total area).
# Subsequent studies were performed in a similar manner as the above to further evaluate S-303 stability at higher concentrations than tested initially, including reconstitution at 40 mM, 50 mM and 75 mM concentrations.
# [2] = as above; format: physicochemical; remark: listed apart in the source
# [3] = tested on: RBCs; assay: Hemolysis after addition to RBCs of S-303/GSH reconstituted in WFI or saline; format: cell-based
# Protocol: A study was performed to evaluate water (WFI, water for injection) as an alternative to saline for reconstitution of S-303 and/or GSH, for potential advantages such as manufacturing, cost of goods and/or regulatory requirements. Initially, the combinations of S-303 and GSH both reconstituted in WFI, or alternatively GSH reconstituted in WFI and S-303 reconstituted in saline were compared to the standard method of reconstituting both GSH and S-303 in saline. Following addition to RBCs, the level of hemolysis was evaluated due to water potentially being a hypotonic environment for the RBC.
# Based on the extended stability data above for reconstituting S-303 at higher concentrations, an opportunity is provided for using bulk S-303 containers and a dosing device as described above for reconstituting S-303 at higher concentrations followed by a dilution step with diluent as part of the transfer of S-303 to the RBC in the mixing container. With such a dilution step, water may be substituted as an alternative to saline in the reconstitution step for the bulk S-303, followed by dilution in saline prior to each transfer step into individual RBC processing sets. To evaluate the feasibility of water reconstitution followed by saline dilution, an additional study was performed. […]
smiles,measurement,setting,value
"O=C(CCNc1c2ccccc2nc2ccccc12)OCCN(CCCl)CCCl [S-303, β-alanine, N-(acridin-9-yl), 2-[bis(2-chloroethyl)amino]ethyl ester]","stability, glass vials vs hemocompatible blood bags of different sheeting materials",[1]; 75 mM,no differences in stability observed
same,Mean % stability,"[1]; reconstituted at 6.1 mM (control), 1 min",98%
same,Mean % stability,"[1]; reconstituted at 6.1 mM (control), 10 min",97%
same,Mean % stability,"[1]; reconstituted at 6.1 mM (control), 20 min",95%
same,Mean % stability,"[1]; reconstituted at 6.1 mM (control), 30 min",94%
same,Mean % stability,"[1]; reconstituted at 6.1 mM (control), 45 min",92%
same,Mean % stability,"[1]; reconstituted at 6.1 mM (control), 60 min",90%
same,Mean % stability,"[1]; reconstituted at 6.1 mM (control), 90 min",87%
same,Mean % stability,"[1]; reconstituted at 6.1 mM (control), 120 min",85%
same,Mean % stability,"[1]; reconstituted at 9.4 mM, 1 min",98%
same,Mean % stability,"[1]; reconstituted at 9.4 mM, 10 min",97%
same,Mean % stability,"[1]; reconstituted at 9.4 mM, 20 min",96%
same,Mean % stability,"[1]; reconstituted at 9.4 mM, 30 min",95%
same,Mean % stability,"[1]; reconstituted at 9.4 mM, 45 min",93%
same,Mean % stability,"[1]; reconstituted at 9.4 mM, 60 min",92%
same,Mean % stability,"[1]; reconstituted at 9.4 mM, 90 min",90%
same,Mean % stability,"[1]; reconstituted at 9.4 mM, 120 min",87%
same,Mean % stability,"[1]; reconstituted at 14.4 mM, 1 min",99%
same,Mean % stability,"[1]; reconstituted at 14.4 mM, 10 min",97%
same,Mean % stability,"[1]; reconstituted at 14.4 mM, 20 min",96%
same,Mean % stability,"[1]; reconstituted at 14.4 mM, 30 min",96%
same,Mean % stability,"[1]; reconstituted at 14.4 mM, 45 min",95%
same,Mean % stability,"[1]; reconstituted at 14.4 mM, 60 min",94%
same,Mean % stability,"[1]; reconstituted at 14.4 mM, 90 min",92%
same,Mean % stability,"[1]; reconstituted at 14.4 mM, 120 min",90%
same,Mean % stability,"[1]; reconstituted at 28.8 mM, 1 min",99%
same,Mean % stability,"[1]; reconstituted at 28.8 mM, 10 min",98%
same,Mean % stability,"[1]; reconstituted at 28.8 mM, 20 min",97%
same,Mean % stability,"[1]; reconstituted at 28.8 mM, 30 min",97%
same,Mean % stability,"[1]; reconstituted at 28.8 mM, 45 min",96%
same,Mean % stability,"[1]; reconstituted at 28.8 mM, 60 min",95%
same,Mean % stability,"[1]; reconstituted at 28.8 mM, 90 min",94%
same,Mean % stability,"[1]; reconstituted at 28.8 mM, 120 min",92%
same,percent stable,"[1]; reconstituted at 28.8 mM, up to 60 minutes",> 95%
same,stability,"[1]; reconstituted at 75 mM, through 150 min",at least 95%
same,"stability time, extrapolation of the data in a best fit curve",[2]; 100 mM concentration,approximately 170 min
same,"stability time, extrapolation of the data in a best fit curve",[2]; 150 mM concentration,~240 min
same,hemolysis,"[3]; S-303 reconstituted at 28.8 mM or 50 mM in WFI, diluted to 6 mM in saline prior to addition to RBCs, GSH in WFI (FIG. 7)",eliminated the issue of hydrolysis previously observed
same,level of hemolysis,"[3]; S-303 reconstituted in WFI, after addition to RBCs, compared with saline reconstitution (FIG. 6)",notable levels of hemolysis
